# Laboratory results reported in patent US20020137929A1, “1 - (3-heterocyclylphenyl) isothiourea, -isourea, -guanidine and -amidine herbicidal agents” (Intellectual Property Department, BASF Aktiengesellschaft, priority 1998, published 2002).
# Experiments:
# AMBEL (Ragweed, Common) [1] = assay: Preemergence herbicidal evaluation; type: in vivo, Ambrosia artemisifolia; conditions: rated 4-5 weeks after treatment
# Method in brief: (§1)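 Seeds were mixed with potting soil and planted on about one inch of soil, then sprayed with test compound in aqueous acetone at about 0.0156 to 0.500 kg per hectare. Plants grew under standard greenhouse care and were visually rated 0-9 against untreated controls 4-5 weeks post-treatment.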
# GALAP (Galium) = assay: Postemergence herbicidal evaluation; type: in vivo, Galium aparine; conditions: postemergence
# Method in brief: (§2)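 First, seedlings were raised for around two weeks. Next, test material in 50/50 acetone/water containing 0.5% TWEEN 20 was sprayed through a nozzle at 40 psi, equivalent to about 0.0156–0.500 kg/ha. Finally, after 4–5 weeks in the greenhouse, plants were rated 0–9.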
# [2] = test system: TRZAWR (Wheat, Winter, cv Riband); assay: Postemergence herbicidal evaluation; type: in vivo, Triticum aestivum; conditions: postemergence
# Method in brief: as §2
# ABUTH (Velvetleaf) = assay: Postemergence herbicidal evaluation; type: in vivo, Abutilon theophrasti; conditions: postemergence
# Method in brief: as §2
# [3] = test system: CHEAL (Lambsquarters, Common); assay: Postemergence herbicidal evaluation; type: in vivo, Chenopodium album; conditions: postemergence
# Method in brief: as §2
# [4] = test system: GLXMAW (Soybean, Williams); assay: Postemergence herbicidal evaluation; type: in vivo, Glycine max, (L.) Merr. cv Williams; conditions: postemergence
# Method in brief: as §2
# AMBEL (Ragweed, Common) [5] = assay: Postemergence herbicidal evaluation; type: in vivo, Ambrosia artemisifolia; conditions: postemergence
# Method in brief: as §2
# ORYSAT (Rice, Tebonnet) [6] = assay: Preemergence herbicidal evaluation; type: in vivo, Oryza sativa, (L.) Tebonnet; conditions: rated 4-5 weeks after treatment
# Method in brief: as §1
# [7] = test system: CHEAL (Lambsquarters, Common); assay: Preemergence herbicidal evaluation; type: in vivo, Chenopodium album; conditions: rated 4-5 weeks after treatment
# Method in brief: as §1
# SETVI (Foxtail, Green) = assay: Postemergence herbicidal evaluation; type: in vivo, Setaria viridis; conditions: postemergence
# Method in brief: as §2
# ORYSAT (Rice, Tebonnet) [8] = assay: Postemergence herbicidal evaluation; type: in vivo, Oryza sativa, (L.) Tebonnet; conditions: postemergence
# Method in brief: as §2
# [9] = test system: SAGPY (Arrowhead (Pygmaea)); assay: Preemergence weed control under flooded paddy conditions; type: in vivo, Sagittaria pygmaea; conditions: rated 3-4 weeks after treatment
# Method in brief: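 Visual injury scored 0-9 against control three to four weeks post-treatment, greenhouse-grown. Application: acetone/water (50/50) solutions dosed directly into flood water (1.5-3 cm over silt loam, planted top 0.5 cm), roughly 0.0313 to 0.500 kg/ha active ingredient.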
compound,measurement,setting,value
"C=CCN1C(=O)C(CC(=O)NS(=O)(=O)C(C)C)SC1=Nc1cc(-n2c(=O)cc(C(F)(F)F)n(C)c2=O)c(F)cc1Cl (stereo not drawn) [Compound 118, 3-Allyl-2-{{2-chloro-5-[3,6-dihydro-3-methyl-2,6-dioxo-4-(trifluoromethyl)-1(2H)-pyrimidinyl]-4-fluorophenyl}imino}-N-(isopropylsulfonyl)-4-oxo-5-thiazolidineacetamide]",Preemergence herbicidal rating AMBEL,"AMBEL (Ragweed, Common) [1]; rate 0.0625 kg/ha",0.0
same,Preemergence herbicidal rating AMBEL,"AMBEL (Ragweed, Common) [1]; rate 0.1250 kg/ha",0.0
same,Preemergence herbicidal rating AMBEL,"AMBEL (Ragweed, Common) [1]; rate 0.2500 kg/ha",6.0
same,herbicidal rating GALAP,GALAP (Galium); rate 0.0158 kg/ha,0.0
same,herbicidal rating GALAP,GALAP (Galium); rate 0.0315 kg/ha,0.0
same,herbicidal rating GALAP,GALAP (Galium); rate 0.0630 kg/ha,1.0
same,herbicidal rating TRZAWR,[2]; rate 0.0158 kg/ha,2.0
same,herbicidal rating TRZAWR,[2]; rate 0.0315 kg/ha,2.0
same,herbicidal rating TRZAWR,[2]; rate 0.0630 kg/ha,2.0
same,herbicidal rating ABUTH,ABUTH (Velvetleaf); rate 0.0158 kg/ha,0.0
same,herbicidal rating ABUTH,ABUTH (Velvetleaf); rate 0.0315 kg/ha,4.0
same,herbicidal rating ABUTH,ABUTH (Velvetleaf); rate 0.0630 kg/ha,9.0
same,herbicidal rating CHEAL,[3]; rate 0.0158 kg/ha,0.0
same,herbicidal rating CHEAL,[3]; rate 0.0315 kg/ha,0.0
same,herbicidal rating CHEAL,[3]; rate 0.0630 kg/ha,5.0
same,herbicidal rating GLXMAW,[4]; rate 0.0158 kg/ha,4.5
same,herbicidal rating GLXMAW,[4]; rate 0.0315 kg/ha,5.0
same,herbicidal rating GLXMAW,[4]; rate 0.0630 kg/ha,6.0
same,herbicidal rating AMBEL,"AMBEL (Ragweed, Common) [5]; rate 0.0158 kg/ha",0.0
same,herbicidal rating AMBEL,"AMBEL (Ragweed, Common) [5]; rate 0.0315 kg/ha",2.0
same,herbicidal rating AMBEL,"AMBEL (Ragweed, Common) [5]; rate 0.0630 kg/ha",2.0
same,Preemergence herbicidal rating ORYSAT,"ORYSAT (Rice, Tebonnet) [6]; rate 0.0625 kg/ha",0.0
same,Preemergence herbicidal rating ORYSAT,"ORYSAT (Rice, Tebonnet) [6]; rate 0.1250 kg/ha",0.0
same,Preemergence herbicidal rating ORYSAT,"ORYSAT (Rice, Tebonnet) [6]; rate 0.2500 kg/ha",0.0
same,Preemergence herbicidal rating CHEAL,[7]; rate 0.0625 kg/ha,6.0
same,Preemergence herbicidal rating CHEAL,[7]; rate 0.1250 kg/ha,9.0
same,Preemergence herbicidal rating CHEAL,[7]; rate 0.2500 kg/ha,9.0
same,herbicidal rating SETVI,"SETVI (Foxtail, Green); rate 0.0158 kg/ha",0.0
same,herbicidal rating SETVI,"SETVI (Foxtail, Green); rate 0.0315 kg/ha",0.0
same,herbicidal rating SETVI,"SETVI (Foxtail, Green); rate 0.0630 kg/ha",4.0
same,herbicidal rating ORYSAT,"ORYSAT (Rice, Tebonnet) [8]; rate 0.0158 kg/ha",2.0
same,herbicidal rating ORYSAT,"ORYSAT (Rice, Tebonnet) [8]; rate 0.0315 kg/ha",2.0
same,herbicidal rating ORYSAT,"ORYSAT (Rice, Tebonnet) [8]; rate 0.0630 kg/ha",2.0
same,"herbicidal effect rating, SAGPY",[9]; 0.0313 kg/ha,0.0
same,"herbicidal effect rating, SAGPY",[9]; 0.0625 kg/ha,0.0
same,"herbicidal effect rating, SAGPY",[9]; 0.1250 kg/ha,3.0
same,"herbicidal effect rating, SAGPY",[9]; 0.2500 kg/ha,3.0
"CCOC(=O)CN1C(=O)C(CC(=O)NS(=O)(=O)C(C)C)SC1=Nc1cc(-n2c(=O)cc(C(F)(F)F)n(C)c2=O)c(F)cc1Cl (stereo not drawn) [Compound 117, Ethyl 2-{{2-chloro-5-[3,6-dihydro-3-methyl-2,6-dioxo-4-(trifluoromethyl)-1(2H)-pyrimidinyl]-4-fluorophenyl}imino}-5-{[(isopropylsulfonyl)-carbamoyl]methyl}-4-oxo-3-thiazolidineacetate]",Preemergence herbicidal rating AMBEL,"AMBEL (Ragweed, Common) [1]; rate 0.0156 kg/ha",0.0
same,Preemergence herbicidal rating AMBEL,"AMBEL (Ragweed, Common) [1]; rate 0.0313 kg/ha",0.0
same,Preemergence herbicidal rating AMBEL,"AMBEL (Ragweed, Common) [1]; rate 0.0625 kg/ha",0.0
same,Preemergence herbicidal rating AMBEL,"AMBEL (Ragweed, Common) [1]; rate 0.1250 kg/ha",0.0
same,Preemergence herbicidal rating AMBEL,"AMBEL (Ragweed, Common) [1]; rate 0.2500 kg/ha",7.0
same,herbicidal rating GALAP,GALAP (Galium); rate 0.0158 kg/ha,1.0
same,herbicidal rating GALAP,GALAP (Galium); rate 0.0315 kg/ha,1.0
same,herbicidal rating GALAP,GALAP (Galium); rate 0.0630 kg/ha,1.0
same,herbicidal rating TRZAWR,[2]; rate 0.0158 kg/ha,3.0
same,herbicidal rating TRZAWR,[2]; rate 0.0315 kg/ha,3.5
same,herbicidal rating TRZAWR,[2]; rate 0.0630 kg/ha,3.5
same,herbicidal rating ABUTH,ABUTH (Velvetleaf); rate 0.0158 kg/ha,9.0
same,herbicidal rating ABUTH,ABUTH (Velvetleaf); rate 0.0315 kg/ha,9.0
same,herbicidal rating ABUTH,ABUTH (Velvetleaf); rate 0.0630 kg/ha,9.0
same,herbicidal rating CHEAL,[3]; rate 0.0158 kg/ha,0.0
same,herbicidal rating CHEAL,[3]; rate 0.0315 kg/ha,4.0
same,herbicidal rating CHEAL,[3]; rate 0.0630 kg/ha,9.0
same,herbicidal rating GLXMAW,[4]; rate 0.0158 kg/ha,5.0
same,herbicidal rating GLXMAW,[4]; rate 0.0315 kg/ha,5.0
same,herbicidal rating GLXMAW,[4]; rate 0.0630 kg/ha,6.0
same,herbicidal rating AMBEL,"AMBEL (Ragweed, Common) [5]; rate 0.0158 kg/ha",4.0
same,herbicidal rating AMBEL,"AMBEL (Ragweed, Common) [5]; rate 0.0315 kg/ha",5.0
same,herbicidal rating AMBEL,"AMBEL (Ragweed, Common) [5]; rate 0.0630 kg/ha",7.0
same,Preemergence herbicidal rating ORYSAT,"ORYSAT (Rice, Tebonnet) [6]; rate 0.0156 kg/ha",0.0
same,Preemergence herbicidal rating ORYSAT,"ORYSAT (Rice, Tebonnet) [6]; rate 0.0313 kg/ha",0.0
same,Preemergence herbicidal rating ORYSAT,"ORYSAT (Rice, Tebonnet) [6]; rate 0.0625 kg/ha",0.0
same,Preemergence herbicidal rating ORYSAT,"ORYSAT (Rice, Tebonnet) [6]; rate 0.1250 kg/ha",0.0
same,Preemergence herbicidal rating ORYSAT,"ORYSAT (Rice, Tebonnet) [6]; rate 0.2500 kg/ha",0.0
same,Preemergence herbicidal rating CHEAL,[7]; rate 0.0156 kg/ha,9.0
same,Preemergence herbicidal rating CHEAL,[7]; rate 0.0313 kg/ha,9.0
same,Preemergence herbicidal rating CHEAL,[7]; rate 0.0625 kg/ha,9.0
same,Preemergence herbicidal rating CHEAL,[7]; rate 0.1250 kg/ha,6.0
same,Preemergence herbicidal rating CHEAL,[7]; rate 0.2500 kg/ha,9.0
same,herbicidal rating SETVI,"SETVI (Foxtail, Green); rate 0.0158 kg/ha",1.0
same,herbicidal rating SETVI,"SETVI (Foxtail, Green); rate 0.0315 kg/ha",2.0
same,herbicidal rating SETVI,"SETVI (Foxtail, Green); rate 0.0630 kg/ha",2.0
same,herbicidal rating ORYSAT,"ORYSAT (Rice, Tebonnet) [8]; rate 0.0158 kg/ha",2.0
same,herbicidal rating ORYSAT,"ORYSAT (Rice, Tebonnet) [8]; rate 0.0315 kg/ha",2.0
same,herbicidal rating ORYSAT,"ORYSAT (Rice, Tebonnet) [8]; rate 0.0630 kg/ha",3.0
same,"herbicidal effect rating, SAGPY",[9]; 0.0313 kg/ha,0.0
same,"herbicidal effect rating, SAGPY",[9]; 0.0625 kg/ha,0.0
same,"herbicidal effect rating, SAGPY",[9]; 0.1250 kg/ha,0.0
same,"herbicidal effect rating, SAGPY",[9]; 0.2500 kg/ha,0.0
"CCOC(=O)CN1C(=O)C(CC(=O)O)SC1=Nc1cc(-n2nc(C)n(C(F)F)c2=O)c(F)cc1Cl (stereo not drawn) [Compound 112, 2-{{2-Chloro-5-[4-(difluoromethyl)-4,5-dihydro-3-methyl-5-oxo-1H-1,2,4-triazol-1-yl]-4-fluorophenyl}imino}-4-oxo-3,5-thiazolidinediacetic acid, 3-ethyl ester]",Preemergence herbicidal rating AMBEL,"AMBEL (Ragweed, Common) [1]; rate 0.0313 kg/ha",0.0
same,Preemergence herbicidal rating AMBEL,"AMBEL (Ragweed, Common) [1]; rate 0.0625 kg/ha",0.0
same,Preemergence herbicidal rating AMBEL,"AMBEL (Ragweed, Common) [1]; rate 0.1250 kg/ha",0.0
same,Preemergence herbicidal rating AMBEL,"AMBEL (Ragweed, Common) [1]; rate 0.2500 kg/ha",0.0
same,herbicidal rating GALAP,GALAP (Galium); rate 0.0158 kg/ha,0.0
same,herbicidal rating GALAP,GALAP (Galium); rate 0.0315 kg/ha,2.0
same,herbicidal rating GALAP,GALAP (Galium); rate 0.0630 kg/ha,2.0
same,herbicidal rating TRZAWR,[2]; rate 0.0158 kg/ha,2.0
same,herbicidal rating TRZAWR,[2]; rate 0.0315 kg/ha,2.0
same,herbicidal rating TRZAWR,[2]; rate 0.0630 kg/ha,3.0
same,herbicidal rating ABUTH,ABUTH (Velvetleaf); rate 0.0158 kg/ha,9.0
same,herbicidal rating ABUTH,ABUTH (Velvetleaf); rate 0.0315 kg/ha,9.0
same,herbicidal rating ABUTH,ABUTH (Velvetleaf); rate 0.0630 kg/ha,9.0
same,herbicidal rating CHEAL,[3]; rate 0.0158 kg/ha,4.0
same,herbicidal rating CHEAL,[3]; rate 0.0315 kg/ha,9.0
same,herbicidal rating CHEAL,[3]; rate 0.0630 kg/ha,9.0
same,herbicidal rating GLXMAW,[4]; rate 0.0158 kg/ha,5.5
same,herbicidal rating GLXMAW,[4]; rate 0.0315 kg/ha,5.0
same,herbicidal rating GLXMAW,[4]; rate 0.0630 kg/ha,6.0
same,herbicidal rating AMBEL,"AMBEL (Ragweed, Common) [5]; rate 0.0158 kg/ha",5.0
same,herbicidal rating AMBEL,"AMBEL (Ragweed, Common) [5]; rate 0.0315 kg/ha",9.0
same,herbicidal rating AMBEL,"AMBEL (Ragweed, Common) [5]; rate 0.0630 kg/ha",9.0
same,Preemergence herbicidal rating ORYSAT,"ORYSAT (Rice, Tebonnet) [6]; rate 0.0313 kg/ha",0.0
same,Preemergence herbicidal rating ORYSAT,"ORYSAT (Rice, Tebonnet) [6]; rate 0.0625 kg/ha",0.0
same,Preemergence herbicidal rating ORYSAT,"ORYSAT (Rice, Tebonnet) [6]; rate 0.1250 kg/ha",0.0
same,Preemergence herbicidal rating ORYSAT,"ORYSAT (Rice, Tebonnet) [6]; rate 0.2500 kg/ha",2.0
same,Preemergence herbicidal rating CHEAL,[7]; rate 0.2500 kg/ha,1.0
same,herbicidal rating SETVI,"SETVI (Foxtail, Green); rate 0.0158 kg/ha",3.0
same,herbicidal rating SETVI,"SETVI (Foxtail, Green); rate 0.0315 kg/ha",9.0
same,herbicidal rating SETVI,"SETVI (Foxtail, Green); rate 0.0630 kg/ha",6.0
same,herbicidal rating ORYSAT,"ORYSAT (Rice, Tebonnet) [8]; rate 0.0158 kg/ha",2.0
same,herbicidal rating ORYSAT,"ORYSAT (Rice, Tebonnet) [8]; rate 0.0315 kg/ha",2.0
same,herbicidal rating ORYSAT,"ORYSAT (Rice, Tebonnet) [8]; rate 0.0630 kg/ha",2.5
same,SAGPY herbicidal effect rating,[9]; 0.0313 kg/ha,6.0
same,SAGPY herbicidal effect rating,[9]; 0.0625 kg/ha,7.0
same,SAGPY herbicidal effect rating,[9]; 0.1250 kg/ha,7.0
same,SAGPY herbicidal effect rating,[9]; 0.2500 kg/ha,7.0
